Results from publication PMC11729550, “Discovery of indole analogue Tc3 as a potent pyroptosis inducer and identification of its combination strategy against hepatic carcinoma” (Theranostics, 2025).

Key:
Assay type in all cases: cell-based, human
HepG2 cells = test: Flow cytometry of propidium iodide and annexin V-FITC staining; conditions: HepG2, 4 μM
Source text: Figure 2 Cytotoxic effect of Tc3 on human hepatic carcinoma cells in vitro. […] (B-C) Cell viability rates of HepG2 (B) and SK-Hep1 (C) cells treated with Tb7, Tc1, Tc3, Tc4 and other clinical chemotherapy drugs. (D-F) Flow cytometry of propidium iodide and annexin V-fluorescein isothiocyanate (FITC)-stained HepG2 cells (D). Statistical analysis of the early apoptotic cells (E) and late apoptotic cells (F). (G-I) Flow cytometry of propidium iodide and annexin V-fluorescein isothiocyanate (FITC)-stained AML-12 cells (G). Statistical analysis of the early apoptotic cells (H) and late apoptotic cells (I). Data are presented as mean ± SD of three independent biological experiments. *p < 0.05, **p < 0.01, ***p < 0.001 and ****p < 0.0001, ns, no significant.

HepG2 and SK-Hep1 cells = test: LDH release assay; conditions: 0-4 μM, three days
Protocol: The hepatic carcinoma cells were seeded in 96-well plates and treated with indole analogues for three days. Of note, the compounds were added into DMEM medium supplemented with 1% FBS. The cellular supernatant was collected for LDH release detection by using LDH cytotoxicity assay kit (Beyotime, C0016). Statistical analysis was combined with the cell viability data tested by WST-1 cell proliferation and cytotoxicity assay kit (Beyotime, C0035).

hepatic carcinoma cells = test: Cell migration assay (wound scratch, transwell); conditions: HepG2 and SK-Hep1, 0-4 μM
Protocol: For transwell assay, the hepatic carcinoma cells were seeded in wells and put wells into 24-well plates pre-loaded DMEM medium supplemented with 20% FBS. The wells were added only DMEM medium with Tc3. The cells migrated through the membrane of wells in two days. Next, the wells were fixed by paraformaldehyde, stained by crystal violet and photographed for statistical analysis. For cell scratch assay, the hepatic carcinoma cells were seeded in 6-well plates and treated with Tc3. The scratch lines were obtained before the cell fusion reached almost 100%, and the cells were photographed at time gradient points for statistical analysis.

Structure (SMILES): CC(C)[C@H](N)C(=O)NCCCn1cc(/C=C2\S/C(=N\c3ccc(N4CCOCC4)cc3)N(Cc3ccc(F)cc3)C2=O)c2ccccc21 [Tc3]
- cell death by annexin V / propidium iodide flow cytometry (HepG2 cells): severe cell death
- LDH release levels (HepG2 and SK-Hep1 cells): highest LDH release
- cell migration rates (wound scratch, transwell) (hepatic carcinoma cells): reduced cell migration rates
